Experimental data taken from patent US12117402B2, “Bioluminescent sensor for isothiocyanates” (The United States of America, as represented by the …, priority 2021, dated 2024).

Key:
[1] = aqueous solutions, pH 6; cited from earlier work
[2] = tested on: P. fluorescens SBW25 expressing an ilux operon under control of the saxA promoter; assay type: cell-based, Pseudomonas fluorescens SBW25; conditions: for responsiveness of the biosensor to the compound: FIG. 4
Description: (§1) For the basic microplate assay, the reporter biosensor was cultivated overnight in LB media with 50 μg/mL carbenicillin and 15 μg/mL gentamicin. The 200 μL assay was performed in opaque 96-well microtiter plates by adding ITC sample to the reporter cells at a final concentration of 0.05 OD600 in LB medium. All assay plates included cell-only controls (no ITC sample). Luminescence was measured in either a microplate spectrophotometer (Biotek Synergy HT) or a designated luminometer (Molecular Devices Spectramax L) for a 20-hour period in 15-minute intervals with ˜500 RPM shaking. Data were collected using auto-scaled gain or photon counting to increase signal detection. Modifications to the assay for the luxCDABE-based biosensor included a lower bacterial OD600 of 0.005, incubation at 31° C., and measurement every 30 min.
To increase the luminescent signal, the luxCDABE operon of the pHT #3 plasmid was replaced with the enhanced ilux operon that has an additional open reading frame encoding flavin mononucleotide (FMN) reductase and other optimizations (Gregor et al, Proc. Natl. Acad. Sci., (2018) 115(3): 962-967). All other components remained the same as the precursor, and this plasmid was assembled using the Gibson Assembly method (Gibson et al, Nature Meth., (2009) 6(5):343-347). The resulting plasmid, named pHT #9, was integrated into the P. fluorescens SBW25 genome in the same manner as pHT #3.
Plant extracts were prepared from seeds germinated in small petri dishes containing 0.5×Murashige and Skoog Medium and 0.3% agar for up to 4-days under artificial lighting. Germinated seeds and/or seedlings were transferred to 2-mL screwcap tubes containing steel beads. Water was added at a 1:2 ratio of plant weight to water volume. The tissue was macerated and pelleted by centrifugation. Supernatants were diluted prior to use in the basic microplate protocol.
To analyze the ability of the biosensor to detect ITCs in plant residues, seed meal was incubated on a rotating shaker at room temperature for 24 hrs with a 1:10 seed meal:water ratio (by mass) in 2.0 mL microcentrifuge tubes. Centrifuging and assaying of supernatant were conducted as described above for seedlings. Two seed meal types were tested—Sinapis alba (white mustard) and Brassica juncea (Indian mustard)—both of which are used in commercial biofumigation.
Biofumigated soil was collected from a field study in Hermiston, Oregon. The soils were managed in a 3-yr rotation with a Brassica cover crop mix (B. juncea Caliente 199 and Caliente Rojo; allyl ITC). The Brassica cover crop was tilled into the soil the day prior to sampling and the soils were stored frozen until analysis. […] Frozen soils were thawed and subsamples were homogenized (1600 MiniG homogenizer, 1500 RPM, 7 min), and rotated at room temperature for 45 min to allow time for glucosinolate hydrolysis. The sample was centrifuged for 5 min at 4,000×g and 100 μL extract was used in the basic microplate assay.
For analysis of seed meal amended soil, B. napus and S. alba seed meals were each added to a moist silt loam soils at 0.3% and 3% weight/dry weight. The soil/seed meals were mixed, transferred to small zippered bags and stored in gas-impermeable bags at room temperature. Soil amended with wheat straw and unamended soil were included as ITC-free controls.

[3] = tested on: P. fluorescens SBW25 expressing the luxCDABE operon under control of the saxA promoter
Text: The plasmid vector pUC18T-Tn7T-lux-Gm (Damron et al., Appl. Environ. Microbiol. (2013) 79(13): 4149-4153), which contains Tn7 sites for integration into the P. fluorescens genome, a luxCDABE operon responsible for bioluminescence, and a gentamicin resistance marker. This plasmid also contained a pl promoter, an unregulated promoter upstream of the luxCDABE operon, which was removed and replaced with the desired promoter.
The saxA promoter was PCR amplified from Pseudomonas cannabina and cloned upstream of the luxCDABE gene operon. […] The resulting plasmid containing the luxCDABE operon under control of the saxA promoter was termed pHT #3. This plasmid was transformed into P. fluorescens SBW25, via electroporation and selected for gentamicin resistance.
as §1

## Oc1ccc(CN=C=S)cc1 [4-hydroxybenzyl ITC]
[1]
  half-life: 6 min
[2]
  responsiveness of the biosensor to the compound: did not respond

## CNC(=S)S [Metam-sodium]
[2]
  responsiveness of the biosensor to the compound: responsive

## N#C[S-].[K+] [potassium thiocyanate]
[2]
  responsiveness of the biosensor to the compound: did not respond

## C[S+]([O-])CCCCN=C=S (centres unmarked) [sulforaphane]
[3]; 0, 25, 50, 75, 100 μM
  response of luminescence to the amount of ITC: dose dependent response
[3]; 100 μM of ITC
  area under the curve (AUC) value of luminescence: 1.5×10^7
  peak luminescence: approximately 700 relative light units (RLUs)
[3]; regardless of the concentration, 0-100 μM
  time of peak luminescence after inoculation: 8 to 9 h
[2]
  time of initial peak luminescence: 4 to 4.5 h
  responsiveness of the biosensor to the compound: responsive
[2]; 0, 5, 10, 25, 50, 75, 100 μM
  response of luminescence to the amount of ITC: dose-dependent response
[2]; 100 μM dose
  increase in AUC compared to the luxCDABE biosensor: 2 fold
  increase in the maximum RLU compared to the luxCDABE biosensor: 7.7 fold
[2]; low-dose range 0-20 μM
  concentrations detected (limits of detection): 1 to 2 µM
